Test results: patent US11780830B2, “Triazolone derivatives or salts thereof and pharmaceutical compositions comprising the same” (YUHAN CORPORATION, priority 2018, dated 2023)
Where a name gives a salt, the structure may show the parent alone.

What was measured:
Format in all cases: biochemical
[1] = target: T1, recombinant human MAO-A (monoamine oxidase-A) (Homo sapiens, UniProt P21397); assay: Activity on recombinant human MAO-A, method similar to the VAP-1 assay; conditions: substrate 0.5 mM tyramine; read-out: Inhibitory Activity (IC50, nM) MAO-A
T1 construct: purchased Sigma-Aldrich
T1 sequence (P21397 1-527): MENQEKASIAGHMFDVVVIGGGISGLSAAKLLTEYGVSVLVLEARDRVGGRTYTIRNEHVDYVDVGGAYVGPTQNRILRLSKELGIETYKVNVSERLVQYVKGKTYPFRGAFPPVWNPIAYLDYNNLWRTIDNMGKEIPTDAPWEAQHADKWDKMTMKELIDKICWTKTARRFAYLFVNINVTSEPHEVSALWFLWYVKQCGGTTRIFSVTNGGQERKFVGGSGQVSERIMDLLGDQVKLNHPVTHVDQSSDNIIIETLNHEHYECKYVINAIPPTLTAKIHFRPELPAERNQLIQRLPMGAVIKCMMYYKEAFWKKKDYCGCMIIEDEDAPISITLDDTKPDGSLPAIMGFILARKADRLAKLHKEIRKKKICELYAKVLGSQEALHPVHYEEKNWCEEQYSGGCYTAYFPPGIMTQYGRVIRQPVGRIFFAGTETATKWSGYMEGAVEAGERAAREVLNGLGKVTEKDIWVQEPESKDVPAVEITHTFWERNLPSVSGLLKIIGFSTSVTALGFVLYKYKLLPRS
In short: (§1)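 HRP-coupled Amplex Red H2O2 assay, 50 mM sodium phosphate pH 7.4; compounds (8-point 1:3 series, final DMSO <1%) preincubated with enzyme 30 min at 37° C, then 200 uM Amplex Red, 1 U/mL HRP and substrate (MAO-A 0.5 mM tyramine; MAO-B 1 mM benzylamine) added. Resorufin fluorescence (ex 544/em 590 nm) read over 1-2 h; IC50 from four-parameter logistic fit.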

[2] = target: T2, recombinant human DAO (diamine oxidase) (Homo sapiens, UniProt P19801); assay: Activity on recombinant human DAO, method similar to the VAP-1 assay; conditions: substrate 1 mM putrescine; read-out: Inhibitory Activity (IC50, nM) DAO
T2 construct: purchased R&D systems
T2 sequence (P19801 20-751): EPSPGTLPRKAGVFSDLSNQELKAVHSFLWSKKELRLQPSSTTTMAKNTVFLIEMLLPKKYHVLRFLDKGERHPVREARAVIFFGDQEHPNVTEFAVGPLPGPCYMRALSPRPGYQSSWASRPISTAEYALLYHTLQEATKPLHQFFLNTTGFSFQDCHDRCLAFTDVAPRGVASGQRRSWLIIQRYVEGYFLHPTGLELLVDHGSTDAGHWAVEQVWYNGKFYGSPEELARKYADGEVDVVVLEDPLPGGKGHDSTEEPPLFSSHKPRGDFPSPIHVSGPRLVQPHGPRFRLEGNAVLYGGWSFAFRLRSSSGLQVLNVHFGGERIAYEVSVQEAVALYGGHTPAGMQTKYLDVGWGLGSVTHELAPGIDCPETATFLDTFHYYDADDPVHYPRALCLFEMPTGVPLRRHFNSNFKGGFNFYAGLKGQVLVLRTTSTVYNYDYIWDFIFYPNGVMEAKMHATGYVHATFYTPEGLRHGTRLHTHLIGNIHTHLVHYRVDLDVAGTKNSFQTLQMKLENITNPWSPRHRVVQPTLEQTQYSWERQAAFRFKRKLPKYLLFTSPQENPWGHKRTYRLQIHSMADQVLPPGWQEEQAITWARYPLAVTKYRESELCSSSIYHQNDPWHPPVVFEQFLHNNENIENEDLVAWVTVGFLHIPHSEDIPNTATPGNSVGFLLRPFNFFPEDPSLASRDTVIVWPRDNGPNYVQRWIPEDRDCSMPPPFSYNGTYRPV
In short: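 Inhibition of recombinant human diamine oxidase (DAO, R&D systems) was assessed by the same approach as the VAP-1 assay, using 1 mM putrescine as substrate. Hydrogen peroxide formed was detected through an HRP-coupled Amplex Red reaction yielding fluorescent resorufin, read at 544 nm excitation and 590 nm emission. IC50 values came from four-parameter logistic fitting in GraphPad Prism.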

[3] = target: T3, recombinant human MAO-B (monoamine oxidase-B) (Homo sapiens, UniProt P27338); assay: Activity on recombinant human MAO-B, method similar to the VAP-1 assay; conditions: substrate 1 mM benzylamine; read-out: Inhibitory Activity (IC50, nM) MAO-B
T3 construct: purchased Sigma-Aldrich
T3 sequence (P27338 1-520): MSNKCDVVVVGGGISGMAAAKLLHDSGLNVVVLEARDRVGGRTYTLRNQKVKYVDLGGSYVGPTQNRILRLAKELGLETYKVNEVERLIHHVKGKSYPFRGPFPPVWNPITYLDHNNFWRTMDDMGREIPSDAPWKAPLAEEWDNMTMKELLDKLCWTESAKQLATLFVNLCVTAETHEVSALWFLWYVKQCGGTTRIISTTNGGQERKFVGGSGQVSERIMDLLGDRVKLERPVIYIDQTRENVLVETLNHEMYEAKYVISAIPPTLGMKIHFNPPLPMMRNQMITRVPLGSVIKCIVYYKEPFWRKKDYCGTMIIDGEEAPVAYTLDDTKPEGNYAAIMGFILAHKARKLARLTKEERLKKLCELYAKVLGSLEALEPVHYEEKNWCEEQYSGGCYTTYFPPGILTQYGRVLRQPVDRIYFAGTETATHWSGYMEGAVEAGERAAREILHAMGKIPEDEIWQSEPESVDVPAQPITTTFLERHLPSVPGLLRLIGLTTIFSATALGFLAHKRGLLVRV
In short: as §1

recombinant human VAP-1 = target: T4, recombinant human VAP-1 (Homo sapiens, UniProt Q16853); assay: Activity on recombinant human VAP-1, HRP-coupled Amplex Red hydrogen peroxide assay; conditions: substrate 1 mM benzylamine; compound incubated with enzyme at 37° C. for 30 minutes; pH 7.4; read-out: Inhibitory Activity (IC50, nM) human VAP-1
T4 construct: purchased R&D systems
T4 sequence (Q16853 1-763): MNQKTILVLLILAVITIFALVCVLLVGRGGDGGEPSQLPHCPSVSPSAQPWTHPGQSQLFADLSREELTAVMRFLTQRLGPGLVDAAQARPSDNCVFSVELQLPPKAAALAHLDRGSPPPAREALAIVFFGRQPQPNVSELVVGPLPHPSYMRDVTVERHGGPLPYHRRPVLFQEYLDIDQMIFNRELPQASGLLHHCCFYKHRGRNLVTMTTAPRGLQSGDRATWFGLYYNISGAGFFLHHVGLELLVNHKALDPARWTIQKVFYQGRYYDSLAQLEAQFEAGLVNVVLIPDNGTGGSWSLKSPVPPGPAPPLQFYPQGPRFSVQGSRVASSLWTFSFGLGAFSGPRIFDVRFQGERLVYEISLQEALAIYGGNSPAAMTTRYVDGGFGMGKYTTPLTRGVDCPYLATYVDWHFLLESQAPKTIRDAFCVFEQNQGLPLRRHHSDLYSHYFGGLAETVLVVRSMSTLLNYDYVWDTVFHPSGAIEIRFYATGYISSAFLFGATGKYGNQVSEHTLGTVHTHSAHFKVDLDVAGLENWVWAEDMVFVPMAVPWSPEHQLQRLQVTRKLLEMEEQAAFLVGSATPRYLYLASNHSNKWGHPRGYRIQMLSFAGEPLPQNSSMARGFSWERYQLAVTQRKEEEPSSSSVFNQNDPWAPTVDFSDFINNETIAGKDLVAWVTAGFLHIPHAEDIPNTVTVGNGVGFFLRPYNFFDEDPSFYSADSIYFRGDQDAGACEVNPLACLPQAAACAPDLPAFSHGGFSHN
In short: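 8-point 1:3 dilutions, final DMSO <1%; 30 min enzyme preincubation, 37 °C, pH 7.4 phosphate. Start: 1 mM benzylamine + 200 uM Amplex Red + 1 U/mL HRP. Read ex544/em590 over 1-2 h; % rate decrease vs DMSO control, 4-parameter logistic IC50.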

| IC50 [1] [nM] | IC50 [2] [nM] | IC50 [3] [nM] | IC50 (recombinant human VAP-1) [nM] | Structure (SMILES) |
| --- | --- | --- | --- | --- |
| 63000 | 1300 | > 10000 | 0.2 | NC/C(=C\F)Cn1ncn(Cc2ccc(-c3ccc4c(c3)OCC(=O)N4)s2)c1=O [Example 84, 7-[5-(1-[(2E)-2-(aminomethyl)-3-fluoroprop-2-en-1-yl]-5-oxo-1,5-dihydro-4H-1,2,4-triazol-4-ylmethyl)thiophen-2-yl]-2H-1,4-benzoxazin-3(4H)-one hydrochloride] |
| > 100000 | 320 | 1700 | 0.3 | NC/C(=C\F)Cn1ncn(Cc2ccc(-c3ccc4c(c3)SCC(=O)N4)s2)c1=O [Example 85, 7-[5-[[1-[(E)-2-(aminomethyl)-3-fluoro-allyl]-5-oxo-1,2,4-triazol-4-yl]methyl]-2-thienyl]-4H-1,4-benzothiazin-3-one hydrochloride] |
| > 100000 | 380 | 2500 | 0.2 | CN1C(=O)COc2cc(-c3ccc(Cn4cnn(C/C(=C/F)CN)c4=O)s3)ccc21 [Example 86, 7-[5-[[1-[(E)-2-(aminomethyl)-3-fluoro-allyl]-5-oxo-1,2,4-triazol-4-yl]methyl]-2-thienyl]-4-methyl-1,4-benzoxazin-3-one hydrochloride] |
| > 100000 | 760 | 2700 | 0.4 | CC1(C)Oc2cc(-c3ccc(Cn4cnn(C/C(=C/F)CN)c4=O)s3)ccc2NC1=O [Example 87, 7-[5-[[1-[(E)-2-(aminomethyl)-3-fluoro-allyl]-5-oxo-1,2,4-triazol-4-yl]methyl]-2-thienyl]-2,2-dimethyl-4H-1,4-benzoxazin-3-one] |
| > 100000 | 897 | 2400 | 0.3 | Cc1c(-c2ccc(Cn3cnn(C/C(=C/F)CN)c3=O)s2)ccc2c1NC(=O)CC2 [Example 88, 7-[5-[[1-[(E)-2-(aminomethyl)-3-fluoro-allyl]-5-oxo-1,2,4-triazol-4-yl]methyl]-2-thienyl]-8-methyl-3,4-dihydro-1H-quinolin-2-one] |
| 24000 | 230 | 660 | 0.4 | NC/C(=C\F)Cn1ncn(Cc2ccc(-c3ccc4c(c3)NC(=O)CO4)s2)c1=O [Example 90, 6-[5-(1-[(2E)-2-(aminomethyl)-3-fluoroprop-2-en-1-yl]-5-oxo-1,5-dihydro-4H-1,2,4-triazol-4-ylmethyl)thiophen-2-yl]-2H-1,4-benzoxazin-3(4H)-one hydrochloride] |
| > 10000 | 340 | 3200 | 0.9 | Cc1cc(-c2ccc(Cn3cnn(C/C(=C/F)CN)c3=O)s2)cc2c1OCC(=O)N2 [Example 91, 6-[5-(1-[(2E)-2-(aminomethyl)-3-fluoroprop-2-en-1-yl]-5-oxo-1,5-dihydro-4H-1,2,4-triazol-4-ylmethyl)thiophen-2-yl]-8-methyl-2H-1,4-benzoxazin-3(4H)-one hydrochloride] |
| 29000 | 350 | 600 | 0.2 | Cc1c(-c2ccc(Cn3cnn(C/C(=C/F)CN)c3=O)s2)ccc2c1NC(=O)CO2 [Example 92, 6-[5-[[1-[(E)-2-(aminomethyl)-3-fluoro-allyl]-5-oxo-1,2,4-triazol-4-yl]methyl]-2-thienyl]-5-methyl-4H-1,4-benzoxazin-3-one hydrochloride] |
| 54000 | 230 | 1100 | 0.4 | NC/C(=C\F)Cn1ncn(Cc2ccc(-c3cc4c(cc3F)OCC(=O)N4)s2)c1=O [Example 93, 6-[5-(1-[(2E)-2-(aminomethyl)-3-fluoroprop-2-en-1-yl]-5-oxo-1,5-dihydro-4H-1,2,4-triazol-4-ylmethyl)thiophen-2-yl]-7-fluoro-2H-1,4-benzoxazin-3(4H)-one hydrochloride] |
| 11000 | 160 | 1700 | 0.3 | NC/C(=C\F)Cn1ncn(Cc2ccc(-c3cc(F)c4c(c3)NC(=O)CO4)s2)c1=O [Example 94, 6-[5-[[1-[(E)-2-(aminomethyl)-3-fluoro-allyl]-5-oxo-1,2,4-triazol-4-yl]methyl]-2-thienyl]-8-fluoro-4H-1,4-benzoxazin-3-one hydrochloride] |
| 25000 | 240 | 370 | 0.25 | NC/C(=C\F)Cn1ncn(Cc2ccc(-c3ccc4c(c3Cl)NC(=O)CO4)s2)c1=O [Example 95, 6-[5-[[1-[(E)-2-(aminomethyl)-3-fluoro-allyl]-5-oxo-1,2,4-triazol-4-yl]methyl]-2-thienyl]-5-chloro-4H-1,4-benzoxazin-3-one hydrochloride] |
| 87000 | 310 | 120 | 0.8 | CN1C(=O)COc2ccc(-c3ccc(Cn4cnn(C/C(=C/F)CN)c4=O)s3)cc21 [Example 96, 6-[5-(1-[(2E)-2-(aminomethyl)-3-fluoroprop-2-en-1-yl]-5-oxo-1,5-dihydro-4H-1,2,4-triazol-4-ylmethyl)thiophen-2-yl]-4-methyl-2H-1,4-benzoxazin-3(4H)-one hydrochloride] |
